Assay results from PMC5702532 (Bioconjugate chemistry, 2016).
Bridge positions count the residues as written; N and C are the ends. Ends that are not written are not given here.

What was measured:
[1] = test system: MCF-7, MDA-MB-231, A-549 and PC-3 cells; test: Confocal fluorescence detection of cell entry in live carcinoma cells; format: cell-based, human; settings: 10 μM in media for 60 min; live cells washed 3×; confocal microscopy, TAMRA filter; breast (MCF-7, MDA-MB-231), lung (A-549), prostate (PC-3)
[2] = target: XPNPEP1, APaseP human recombinant protein (Homo sapiens, UniProt Q9NQW7); test: Biacore binding affinity assay
Sequence of XPNPEP1, APaseP human recombinant protein (Q9NQW7 whole entry): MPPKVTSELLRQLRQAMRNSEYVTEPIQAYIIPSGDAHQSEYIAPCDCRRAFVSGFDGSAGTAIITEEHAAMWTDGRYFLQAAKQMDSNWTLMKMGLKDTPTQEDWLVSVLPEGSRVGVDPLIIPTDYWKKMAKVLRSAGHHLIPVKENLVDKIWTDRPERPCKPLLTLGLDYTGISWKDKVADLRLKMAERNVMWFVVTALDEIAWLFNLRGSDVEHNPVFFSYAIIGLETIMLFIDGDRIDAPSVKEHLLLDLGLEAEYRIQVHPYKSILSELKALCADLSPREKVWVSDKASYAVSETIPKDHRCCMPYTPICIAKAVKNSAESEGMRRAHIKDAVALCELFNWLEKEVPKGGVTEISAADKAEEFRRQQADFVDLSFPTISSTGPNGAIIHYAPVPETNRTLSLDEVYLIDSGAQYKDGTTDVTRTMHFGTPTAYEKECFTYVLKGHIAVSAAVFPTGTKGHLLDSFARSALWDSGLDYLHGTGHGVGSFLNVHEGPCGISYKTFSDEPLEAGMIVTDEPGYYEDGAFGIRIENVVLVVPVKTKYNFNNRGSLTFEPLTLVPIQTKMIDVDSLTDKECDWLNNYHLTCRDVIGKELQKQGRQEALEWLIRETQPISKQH

Row | Sequence | Cell entry (fluorescence detection) [1] | Kd [2]
1 | CPGPEGAGC (disulfide 1-9 (inferred)) | did not enter breast-derived cells | –
2 | RPPGFSPFR [Bradykinin] | – | 15.3 ± 8 µM
